PubChem BioAssay (NCI)
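Exposure lasted 48 hours, with cells grown in 96-well plates and compounds tested at five concentrations. The concentration for full growth arrest is given as TGI.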

Tests used:
Test in all cases: inhibition of tumour cell growth, NCI panel, 48 h
U251 CNS = test system: U251 CNS
SF-268 CNS = test system: SF-268 CNS
NCI-H226 lung = test system: NCI-H226 lung
HT29 colon = test system: HT29 colon
SNB-75 CNS = test system: SNB-75 CNS
EKVX NSCLC = test system: EKVX NSCLC
MOLT-4 leukemia = test system: MOLT-4 leukemia
SK-OV-3 ovarian = test system: SK-OV-3 ovarian
SR leukemia = test system: SR leukemia
SK-MEL-28 melanoma = test system: SK-MEL-28 melanoma
MALME-3M melanoma = test system: MALME-3M melanoma
OVCAR-3 ovarian = test system: OVCAR-3 ovarian
UACC-257 melanoma = test system: UACC-257 melanoma
CAKI-1 renal = test system: CAKI-1 renal
SNB-19 CNS = test system: SNB-19 CNS
K-562 leukemia = test system: K-562 leukemia
UACC-62 melanoma = test system: UACC-62 melanoma
A498 renal = test system: A498 renal
RPMI-8226 leukemia = test system: RPMI-8226 leukemia
786-0 renal = test system: 786-0 renal
M19-MEL melanoma = test system: M19-MEL melanoma
NCI-H522 lung = test system: NCI-H522 lung
CCRF-CEM leukemia = test system: CCRF-CEM leukemia
DLD-1 colon = test system: DLD-1 colon
NCI-H23 lung = test system: NCI-H23 lung
IGROV1 ovarian = test system: IGROV1 ovarian
HOP-18 NSCLC = test system: HOP-18 NSCLC
COLO 205 colon = test system: COLO 205 colon
M14 melanoma = test system: M14 melanoma
OVCAR-8 ovarian = test system: OVCAR-8 ovarian
TK-10 renal = test system: TK-10 renal
KM20L2 colon = test system: KM20L2 colon
OVCAR-5 ovarian = test system: OVCAR-5 ovarian
HOP-62 NSCLC = test system: HOP-62 NSCLC
HL-60(TB) leukemia = test system: HL-60(TB) leukemia
SF-295 CNS = test system: SF-295 CNS
SK-MEL-2 melanoma = test system: SK-MEL-2 melanoma
KM12 colon = test system: KM12 colon
SK-MEL-5 melanoma = test system: SK-MEL-5 melanoma
SF-539 CNS = test system: SF-539 CNS
LXFL 529 NSCLC = test system: LXFL 529 NSCLC
UO-31 renal = test system: UO-31 renal
OVCAR-4 ovarian = test system: OVCAR-4 ovarian
A549 NSCLC = test system: A549 NSCLC
ACHN renal = test system: ACHN renal
HCT-15 colon = test system: HCT-15 colon
DMS 273 small cell lung = test system: DMS 273 small cell lung
SN12C renal = test system: SN12C renal
HCC-2998 colon = test system: HCC-2998 colon
SW-620 colon = test system: SW-620 colon
HCT-116 colon = test system: HCT-116 colon
SNB-78 CNS = test system: SNB-78 CNS
HOP-92 NSCLC = test system: HOP-92 NSCLC
NCI-H460 lung = test system: NCI-H460 lung
XF 498 CNS = test system: XF 498 CNS
DU-145 prostate = test system: DU-145 prostate
LOX IMVI melanoma = test system: LOX IMVI melanoma
MCF7 breast = test system: MCF7 breast
MDA-MB-231 breast = test system: MDA-MB-231 breast
BT-549 breast = test system: BT-549 breast
HS 578T breast = test system: HS 578T breast
T-47D breast = test system: T-47D breast
DMS 114 small cell lung = test system: DMS 114 small cell lung
NCI/ADR-RES ovarian = test system: NCI/ADR-RES ovarian
RXF 393 renal = test system: RXF 393 renal
MDA-MB-435 = test system: MDA-MB-435

Measured: TGI

CCc1cccc(C)c1N1C(=O)C(=O)C(c2nc3ccccc3o2)C(=O)C1=O
not listed: DU-145 prostate | LOX IMVI melanoma | MCF7 breast | MDA-MB-231 breast | BT-549 breast | HS 578T breast | T-47D breast | DMS 114 small cell lung | NCI/ADR-RES ovarian | RXF 393 renal | MDA-MB-435
> 100 µM: all other assays above

CCOc1ccc(/C(C=O)=C(\Cl)c2ccc(OC)cc2)cc1
> 31.6 µM: MOLT-4 leukemia
> 100 µM: all other assays above
